Test [1] concerns KB. As to the kind of experiment: Cytotoxicity against human KB cells by microculture tetrazolium assay. The class given is functional, cell-based.
The nature of test [2]: Inhibition of tubulin polymerization.
The test system of test [3] is L1210. Put plainly: Cytotoxicity against mouse L1210 cells by microculture tetrazolium assay. It counts as functional, cell-based.

Results on 2 compounds are retold here after ChEMBL document CHEMBL1141263, “Sesquiterpenoids and cytotoxic lignans from the bark of Libocedrus chevalieri” (J Nat Prod, 2007).

On to `COc1cc([C@@H]2c3cc4c(c(OC)c3[C@H](O)[C@H]3COC(=O)[C@H]23)OCO4)cc(OC)c1OC`, for which the half-maximal inhibitory concentration (IC50) – broadly, the concentration needed to halve the response being measured – in test [1] amounted to 0.011 µM; in test [2] it was 5 µM.
Regarding `COc1cc([C@@H]2c3cc4c(c(OC)c3[C@@H](O)[C@H]3COC(=O)[C@H]23)OCO4)cc(OC)c1OC`, the half-maximal inhibitory concentration (IC50) in test [3] turned out to be 82 µM; in test [1] it was 0.045 µM; in test [2], 9 µM.
